Here are results for four compounds from patent US11472778B2, “Hepatitis C virus NS3/4A protease inhibitors” (priority 2017, dated 2022).

In experiment [1] the test system is wild-type HCV replicon in Huh7 cells. In words: Cell-based drug susceptibility (replicon) assay, wild-type. To be noted: Hepatitis C virus, read-out: Replicon EC50 (nM) WT. As for the experimental part: (§1) Mutations (R155K, A516T, D168A and D168V) were constructed by site-directed mutagenesis using a Con1 (genotype 1b) luciferase reporter replicon containing the H77 (genotype 1a) NS3 sequence.
(§2) Replicon RNA of each protease variant was introduced into Huh7 cells by electroporation. Replication was then assessed in the presence of increasing concentrations of protease inhibitors by measuring luciferase activity (relative light units) 96 h after electroporation.
(§3) Mutations (R155K, D168A and A156T) were constructed by site-directed mutagenesis using a Con1 (genotype 1b) luciferase reporter replicon containing the H77 (genotype 1a) NS3 sequence.^6 Replicon RNA of each protease variant was introduced into Huh7 cells by electroporation. Replication was then assessed in the presence of increasing concentrations of protease inhibitors by measuring luciferase activity (relative light units) 96 h after electroporation.
A general note: Replicon systems follow genome replication, usually without infectious particles.

Experiment [2] relates to HCV replicon D168A variant in Huh7 cells. In words: microbe, parasite or virus in culture. The format is cell-based, Hepatitis C virus. The settings on record: for EC50: Hepatitis C virus; for Replicon EC50 (Fold change) D168A: Table 4, relative to WT replicon. How it is done:
as §1, §2, §3

The test system of experiment [3] is HCV replicon A156T variant in Huh7 cells. In words: microbe, parasite or virus in culture. The format is cell-based, Hepatitis C virus. The settings on record: for EC50: Hepatitis C virus; for Replicon EC50 (Fold change) A156T: Table 4, relative to WT replicon. How it is done: as §1, §2, §3
Experiment [4] relates to HCV replicon R155K variant in Huh7 cells. The experiment in a line: microbe, parasite or virus in culture. The experiment is classed as cell-based, Hepatitis C virus. To be noted: for EC50: Hepatitis C virus; for Replicon EC50 (Fold change) R155K: Table 4, relative to WT replicon. As for the experimental part: as §1, §2, §3
Experiment [5] has as its target T1, GT1a D168A NS3/4A protease (UniProt P27958, C1185S/D1194A, species not given).
T1 construct: Ki (nM) GT1a D168A NS3/4A Protease
The experiment is classed as biochemical, Hepatitis C virus. To be noted: read-out: Ki (nM) GT1a D168A NS3/4A Protease. As for the experimental part: (§4) For each assay, 2 nM of NS3/4A protease (GT1, D168A and GT3) was pre-incubated at room temperature for 1 h with increasing concentration of inhibitors in assay buffer [50 mM Tris, 5% glycerol, 10 mM DTT, 0.6 mM LDAO, and 4% dimethyl sulfoxide]. Inhibition assays were performed in nonbinding surface 96-well black half-area plates (Corning) in a reaction volume of 60 μt. […] Three independent data sets were collected for each inhibitor with each protease construct.
(§5) For each assay, 2 nM of NS3/4A protease (GT1a and D168A) was pre-incubated at room temperature for 1 h with increasing concentration of inhibitors in assay buffer (50 mM Tris, 5% glycerol, 10 mM DTT, 0.6 mM LDAO, and 4% dimethyl sulfoxide, pH 7.5). Inhibition assays were performed in non-binding surface 96-well black half-area plates (Corning) in a reaction volume of 60 μL. […] Three independent data sets were collected for each inhibitor with each protease construct.
(§6) For each assay, 2 nM of NS3/4A protease (GT1a, R155K and D168A) was pre-incubated at room temperature for 1 h with increasing concentration of inhibitors in assay buffer (50 mM Tris, 5% glycerol, 10 mM DTT, 0.6 mM LDAO, and 4% dimethyl sulfoxide, pH 7.5). Inhibition assays were performed in non-binding surface 96-well black half-area plates (Corning) in a reaction volume of 60 μL. […] Three independent data sets were collected for each inhibitor with each protease construct. […] Gibbs free energy of binding was calculated using the following equation: ΔG=RTlnKi

For experiment [6], the target named is T2, wild-type GT1a NS3/4A protease (UniProt P27958, C1185S, species not given).
T2 construct: Ki (nM) GT1a WT NS3/4A Protease
The format is biochemical, Hepatitis C virus. The settings on record: read-out: Ki (nM) GT1a WT NS3/4A Protease. How it is done: as §4, §5, §6

The target of experiment [7] is GT1a D168A NS3/4A protease. The experiment is classed as biochemical, Hepatitis C virus. To be noted: Table 3; Ki D168A relative to GT1a WT. As for the experimental part:
as §4, §5, §6

A further experiment addresses T3, GT3a NS3/4A protease (Hepatitis C virus genotype 3a, UniProt Q81495).
T3 construct: drug-resistant variant D168A, and GT3a NS3/4A protease; made in house; host or cells: Escherichia coli BL21(DE3)
The experiment in a line: biochemical. To be noted: for Ki (Fold change) GT3a NS3/4A Protease: Ki GT3a relative to GT1a WT. How it is done: as §4

The test system of experiment [8] is HCV replicon D168V variant in Huh7 cells. The experiment in a line: microbe, parasite or virus in culture. The experiment is classed as cell-based, Hepatitis C virus. To be noted: for EC50: Hepatitis C virus; for Replicon EC50 (Fold change) D168V: Table 4, relative to WT replicon. As for the experimental part: as §1
Replicon RNA of each protease variant was introduced into Huh7 cells by electroporation. Replication was then assessed in the presence of increasing concentrations of protease inhibitors by measuring luciferase activity (relative light units) 96 h after electroporation. […]

[9] abbreviates: Huh-7, 96 h, Table 2, Huh7 cells, luciferase 96 h.
Setting [10] is: Huh-7, 96 h, read-out: Replicon EC50 (nM) D168A, Table 2, Huh7 cells, luciferase 96 h.
The mark [11] stands for this setting: Huh-7, read-out: Replicon EC50 (nM) D168A, Table 4.
[12] abbreviates: Huh-7, 96 h, read-out: Replicon EC50 (nM) A156T, Table 2, Huh7 cells, luciferase 96 h.
Where [13] appears, read: Huh-7, read-out: Replicon EC50 (nM) A156T, Table 4.
[14] abbreviates: Huh-7, 96 h, read-out: Replicon EC50 (nM) R155K, Table 2, Huh7 cells, luciferase 96 h.
[15] abbreviates: Huh-7, read-out: Replicon EC50 (nM) R155K, Table 4.
Setting [16] is: Huh-7, 96 h, read-out: Replicon EC50 (nM) D168V, Table 2, Huh7 cells, luciferase 96 h.
Setting [17] is: Huh-7, read-out: Replicon EC50 (nM) D168V, Table 4.

Like-named read-outs stand apart in the source and are kept apart here.

T3 sequence (Q81495 1033-1214): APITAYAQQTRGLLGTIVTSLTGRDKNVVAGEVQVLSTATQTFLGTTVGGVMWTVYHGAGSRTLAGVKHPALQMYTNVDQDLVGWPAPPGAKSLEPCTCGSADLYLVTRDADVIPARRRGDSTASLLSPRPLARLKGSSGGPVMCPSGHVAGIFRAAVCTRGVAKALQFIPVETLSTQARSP

On to `COc1ccc2nc(C(F)(F)F)c(O[C@@H]3C[C@H]4C(=O)N[C@]5(C(=O)NS(=O)(=O)C6CC6)C[C@H]5/C=C\CCCCC[C@H](NC(=O)OC(C)(C)C)C(=O)N4C3)nc2c1` [Compound 18d], for which the EC50 (usually the midpoint of the concentration-response curve) is 1.98 nM in [1] (setting [9]); 1.98 nM in experiment [1] (Huh-7, Table 4); 16.8 nM in experiment [2] (setting [10]); 16.8 nM in experiment [2] (setting [11]); 36.2 nM in experiment [3] (setting [12]); 36.2 nM in experiment [3] (setting [13]). Besides, the EC50 in experiment [4] (setting [14]) came out at 3.45 nM; in [4] (setting [15]), 3.45 nM; in experiment [8] (setting [16]), 17.1 nM; in experiment [8] (setting [17]), 17.1 nM. Also, the “Replicon EC50 (Fold change) D168A” value in experiment [2] is listed as “(8) fold”. For the same compound, in [3], the “Replicon EC50 (Fold change) A156T” value is “(18) fold”. For the same compound, the “Replicon EC50 (Fold change) R155K” value in experiment [4] is given as “(2) fold”. For the same compound, the Ki amounted to 157 nM in [5] (Table 1); 157 ± 12 nM in experiment [5] (Table 3); 13.3 nM in experiment [6] (Table 1); 13.3 nM in [6] (Table 3); 344 nM at GT3a NS3/4A protease. Also, the “Ki (Fold change) GT1a D168A NS3/4A Protease” value in [7] is given as “(12) fold”. Further, the “Ki (Fold change) GT3a NS3/4A Protease” value at GT3a NS3/4A protease (Table 3) is listed as “(26) fold”. The “Replicon EC50 (Fold change) D168V” value in experiment [8] is “(9) fold”.
For the compound `COc1ccc2nc(C(F)(F)F)c(O[C@@H]3C[C@H]4C(=O)N[C@]5(C(=O)NS(=O)(=O)C6(C)CC6)C[C@H]5/C=C\CCCCC[C@H](NC(=O)OC(C)(C)C)C(=O)N4C3)nc2c1` [Compound 19d, tert-Butyl ((2R,6S,13aS,14aR,16aS,Z)-2-((7-methoxy-3-(trifluoromethyl)quinoxalin-2-yl)oxy)-14a-(((1-methylcyclopropyl)sulfonyl)carbamoyl)-5,16-dioxo-1,2,3,5,6,7,8,9,10,11,13a,14,14a,15,16,16a-hexadecahydrocyclopropa[e]pyrrolo[1,2-a][1,4]diazacyclopentadecin-6-yl)carbamate], the EC50 in [1] (setting [9]) worked out at 1.52 nM; in experiment [1] (Huh-7, Table 4), 1.52 nM; in [2] (setting [10]), 8.64 nM; in experiment [2] (setting [11]) it was 8.64 nM; in [3] (setting [12]), 20.5 nM; in experiment [3] (setting [13]) it was 20.5 nM. Further, the EC50 in [4] (setting [14]) worked out at 2.3 nM; in experiment [4] (setting [15]), 2.3 nM; in [8] (setting [16]) it was 8.31 nM; in experiment [8] (setting [17]), 8.31 nM. The “Replicon EC50 (Fold change) D168A” value in [2] is “(6) fold”. Besides, the “Replicon EC50 (Fold change) A156T” value in experiment [3] was “(13) fold”. Also, the “Replicon EC50 (Fold change) R155K” value in experiment [4] is “(2) fold”. Moreover, the Ki in [5] (Table 1) was 118 nM; in [5] (Table 3), 118 ± 13 nM; in [6] (Table 1), 5.77 nM; in [6] (Table 3), 5.77 nM; on GT3a NS3/4A protease, 231 nM; at GT3a NS3/4A protease (read-out: Ki (nM) GT3a NS3/4A Protease, Table 3), 231 ± 74 nM. For the same compound, the “Ki (Fold change) GT1a D168A NS3/4A Protease” value in experiment [7] was “(20) fold”. Moreover, the “Ki (Fold change) GT3a NS3/4A Protease” value at GT3a NS3/4A protease (Table 3) is given as “(40) fold”. Also, the “Replicon EC50 (Fold change) D168V” value in [8] was “(5) fold”.
For `COc1ccc2nc(C)c(O[C@@H]3C[C@H]4C(=O)N[C@]5(C(=O)NS(=O)(=O)C6(C)CC6)C[C@H]5/C=C\CCCCC[C@H](NC(=O)OC5CCCC5)C(=O)N4C3)nc2c1` [Compound 23b, Cyclopentyl ((2R,6S,13aS,14aR,16aS,Z)-2-((7-methoxy-3-methylquinoxalin-2-yl)oxy)-14a-(((1-methylcyclopropyl)sulfonyl)carbamoyl)-5,16-dioxo-1,2,3,5,6,7,8,9,10,11,13a,14,14a,15,16,16a-hexadecahydrocyclopropa[e]pyrrolo[1,2-a][1,4]diazacyclopentadecin-6-yl)carbamate], the EC50 in experiment [1] (setting [9]) stood at 0.13 nM; in experiment [1] (Huh-7, Table 4) it was 0.13 nM; in experiment [2] (setting [10]), 2.16 nM; in experiment [2] (setting [11]), 2.16 nM; in [3] (setting [12]), 3.99 nM; in experiment [3] (setting [13]), 3.99 nM. For the same compound, the EC50 in experiment [4] (setting [14]) and in [4] (setting [15]) was 1.09 nM in each case. The Ki in experiment [5] (Table 1) came out at 36.3 nM; in experiment [5] (Table 3), 36.3 ± 1.8 nM; in experiment [6] (Table 1), 1.13 nM; in [6] (Table 3), 1.13 nM; at GT3a NS3/4A protease, 121 nM.
In the case of `COc1ccc2nc(C(C)C)c(O[C@@H]3C[C@H]4C(=O)N[C@]5(C(=O)NS(=O)(=O)C6(C)CC6)C[C@H]5/C=C\CCCCC[C@H](NC(=O)OC5CCCC5)C(=O)N4C3)nc2c1` [Compound 23e, Cyclopentyl ((2R,6S,13aS,14aR,16aS,Z)-2-((3-isopropyl-7-methoxyquinoxalin-2-yl)oxy)-14a-(((1-methylcyclopropyl)sulfonyl)carbamoyl)-5,16-dioxo-1,2,3,5,6,7,8,9,10,11,13a,14,14a,15,16,16a-hexadecahydrocyclopropa[e]pyrrolo[1,2-a][1,4]diazacyclopentadecin-6-yl)carbamate], the EC50 turned out to be 0.59 nM in [1] (setting [9]); 0.59 nM in experiment [1] (Huh-7, Table 4); 7.91 nM in experiment [2] (setting [10]); 7.91 nM in experiment [2] (setting [11]); 27.6 nM in experiment [3] (setting [12]); 27.6 nM in [3] (setting [13]). Moreover, the EC50 in experiment [4] (setting [14]) came to 6.83 nM; in experiment [4] (setting [15]), 6.83 nM; in experiment [8] (setting [16]) it was 18.2 nM; in experiment [8] (setting [17]) it was 18.2 nM. The “Replicon EC50 (Fold change) D168A” value in experiment [2] is recorded as “(13) fold”. For the same compound, the “Replicon EC50 (Fold change) A156T” value in experiment [3] is on record as “(47) fold”. Moreover, the “Replicon EC50 (Fold change) R155K” value in [4] is “(12) fold”. The Ki in experiment [5] (Table 1) came to 156 nM; in experiment [5] (Table 3), 156 ± 17 nM; in experiment [6] (Table 1), 1.34 nM; in experiment [6] (Table 3) it was 1.34 nM. For the same compound, the “Ki (Fold change) GT1a D168A NS3/4A Protease” value in [7] is on record as “(116) fold”. For the same compound, the “Replicon EC50 (Fold change) D168V” value in [8] was “(31) fold”.
